Counter-ions that a name gives are not always drawn. Like-named read-outs stand apart in the source and are kept apart here.
Tests used:
[1] = test system: KRAS G12C mutant NCI-H358 cells; assay: Cell proliferation inhibition experiment, 3D spheroid, CellTiter-Glo, NCI-H358; type: cell-based, human; conditions: read-out: H358 IC50
Summary of the method: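 3D spheroid format; 800 H358 / 400 A549 cells/well, 2% FBS. Cpd 3.16-fold series, 0.1% DMSO, 5 d. Readout CellTiter-Glo luminescence; IR% vs DMSO control and medium blank; 4-parameter IC50.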

[2] = test system: phosphorylated ERK downstream of KRAS G12C in MIA PaCa2 cells; assay: Cell p-ERK detection experiment (HTRF) in MIA PaCa2; type: cell-based, human; conditions: read-out: p-ERK IC50
Summary of the method: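 Phospho-ERK (T202/Y204) measured by HTRF after 30 min lysis and 4 h antibody incubation in MIA PaCa2 (KRAS G12C) cells, seeded at 2.5E4 per well and treated 2 h with compounds in 3.16-fold steps, final DMSO 0.1%. IC50 from a four-parameter fit of percent inhibition relative to DMSO and blank wells.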

[3] = Homo sapiens, NCI-H358, 120 h, NCI-H358 (KRAS G12C mutant) 3D spheroid, 5 days with compound, CellTiter-Glo
[4] = Homo sapiens, MIA PaCa-2, 2 h, MIA PaCa2 cells, 2 hours with compound, Advance ERK phospho-T202/Y204 HTRF kit
[5] = NCI-H358 (KRAS G12C mutant) 3D spheroid, 5 days with compound, CellTiter-Glo
[6] = MIA PaCa2 cells, 2 hours with compound, Advance ERK phospho-T202/Y204 HTRF kit

Row | SMILES | IC50 [1, 3] | IC50 [2, 4] | IC50 [1, 5] | IC50 [2, 6] | other results
1 | C=CC(=O)N1CCN2C(=O)c3c(C4NCCN5C(=O)CCC45C)nc(-c4c(O)cccc4F)c(Cl)c3OC[C@H]2C1 (stereo partly drawn) [Z337, (6aR)-8-acryloyl-4-chloro-3-(2-fluoro-6-hydroxyphenyl)-1-(8a-methylhexahydropyrrolo[1,2-a]pyrazin-6 (2H)-one-1-yl)-6,6a,7,8,9,10-hexahydro-12H-pyrazino[2,1-c]pyrido[3,4-f][1,4]oxazepin-12-one] |  |  | 15 nM | 154 nM | 
2 | C=CC(=O)N1CCN2C(=O)c3c(N4CCN(C)C[C@@H]4C)nc(-c4c(O)cccc4Cl)c(Cl)c3OC[C@H]2C1 (single isomer, unassigned) [Z455-1] |  |  | 45.2 nM | 479 nM | 
3 | C=CC(=O)N1CCN2C(=O)c3c(NC(C)(C)C)nc(-c4c(O)cccc4F)c(Cl)c3OC[C@H]2C1 [Z69, (6aR)-8-acryloyl-1-(tert-butylamino)-4-chloro-3-(2-fluoro-6-hydroxyphenyl)-6,6a,7,8,9,10-hexahydro-12H-pyrazino[2,1-c]pyrido[3,4-f][1,4]oxazepin-12-one] | 9 nM | 79 nM |  |  | 
4 | C=CC(=O)N1CCN2C(=O)c3c(N4CCOC5(CC5)C4)nc(-c4c(O)cccc4F)c(Cl)c3OC[C@H]2C1 [Z63, (6aR)-8-acryloyl-4-chloro-1-(4-oxa-7-azaspiro[2.5]octan-7-yl)-3-(2-fluoro-6-hydroxyphenyl)-6,6a,7,8,9,10-hexahydro-12H-pyrazino[2,1-c]pyrido[3,4-f][1,4]oxazepin-12-one] | 14 nM | 154 nM |  |  | 
5 | C=CC(=O)N1CCN2C(=O)c3c(N4CCN(C)C(C)(C)C4)nc(-c4ccccc4F)c(Cl)c3OC[C@H]2C1 [Z463, (R)-8-acryloyl-4-chloro-3-(2-fluorophenyl)-1-(3,3,4-trimethylpiperazin-1-yl)-6,6a,7,8,9,10-hexahydro-12H-pyrazino[2,1-c]pyrido[3,4-f][1,4]oxazepin-12-one, formate] |  |  |  |  | IC50 ([1]; Homo sapiens, NCI-H358, 120 h): 39 nM; IC50 ([2]; Homo sapiens, MIA PaCa-2, 2 h): 271 nM
6 | C=CC(=O)N1CCN2C(=O)c3c(N(C)c4c(C)ccnc4C(C)C)nc(-c4c(O)cccc4F)c(Cl)c3OC[C@H]2C1 [Z6, (6aR)-8-acryloyl-4-chloro-3-(2-fluoro-6-hydroxyphenyl)-1-((2-isopropyl-4-methylpyridin-3-yl)(methyl)amino)-6,6a,7,8,9,10-hexahydro-12H-pyrazino[2,1-c]pyrido[3,4-f][1,4]oxazepin-12-one] | 7 nM | 128 nM |  |  | 

Continued, in another order:

Row | IC50 [1, 3] | IC50 [2, 4] | IC50 [1, 5] | IC50 [2, 6] | SMILES | other results
7 | 5 nM | 91 nM |  |  | C=CC(=O)N1CCN2C(=O)c3c(N4C[C@@H](O)C[C@@H]4C)nc(-c4c(O)cccc4F)c(Cl)c3OC[C@H]2C1 [Z260, (6aR)-8-acryloyl-4-chloro-3-(2-fluoro-6-hydroxyphenyl)-1-((2S,4S)-4-hydroxy-2-methylpyrrolidin-1-yl)-6,6a,7,8,9,10-hexahydro-12H-pyrazino[2,1-c]pyrido[3,4-f][1,4]oxazepin-12-one] | 
8 |  |  | 16.8 nM | 173 nM | C=CC(=O)N1CCN2C(=O)c3c(N4CC(=O)N(C)CC4C)nc(-c4c(O)cccc4F)c(Cl)c3OC[C@H]2C1 (single isomer, unassigned) [Z221-2] | 
9 |  |  | 1.8 nM | 26 nM | C=CC(=O)N1CCN2C(=O)c3c(N4CC(N(C)CC(F)F)CC4(C)C)nc(-c4ccccc4F)c(Cl)c3OC[C@H]2C1 (stereo partly shown) [Z659] | 
10 |  |  | 5 nM | 61 nM | C=CC(=O)N1CCN2C(=O)c3c(N4CC(N5CCOCC5)CC4(C)C)nc(-c4ccccc4F)c(Cl)c3OC[C@H]2C1 (single isomer, unassigned) [Z468-2] | 
11 | 12 nM | 88 nM |  |  | C=CC(=O)N1CCN2C(=O)c3c(N4CC[C@@H]4C)nc(-c4c(O)cccc4F)c(Cl)c3OC[C@H]2C1 [Z68, (6aR)-8-acryloyl-1-((S)-2-methylazetidin-1-yl)-4-chloro-3-(2-fluoro-6-hydroxyphenyl)-6,6a,7,8,9,10-hexahydro-12H-pyrazino[2,1-c]pyrido[3,4-f][1,4]oxazepin-12-one] | 

Source: US20230203060A1 (GENFLEET THERAPEUTICS (SHANGHAI) INC., priority 2020, published 2023)
